Experimental data from the supplement of paper PMC11451515.

Test system: NOMO1
Experiment: cell viability relative to DMSO control; higher = less cytotoxic
Settings: 48 h
Summary of the method: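 Viability is a per-plate percentage relative to DMSO wells, with cell-free wells as background. CellTiter-Glo One luminescence was read after 48 h at 37°C on 1536-well plates (5 μl) of NOMO1 or SEM (500 cells/well) or P12-Ichikawa (1000 cells/well) leukemia cells. The cells had been adapted for at least four passages in each medium and pin-dosed with library compounds in DMSO from 47 μM to 0.79 nM in 11 threefold steps.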

[1] = HPLM + 10% dialyzed FBS, 0.000781 µM
[2] = HPLM + 10% dialyzed FBS, 0.00234 µM
[3] = HPLM + 10% dialyzed FBS, 0.00702 µM
[4] = HPLM + 10% dialyzed FBS, 0.0211 µM
[5] = HPLM + 10% dialyzed FBS, 0.0632 µM
[6] = HPLM + 10% dialyzed FBS, 0.19 µM
[7] = HPLM + 10% dialyzed FBS, 0.569 µM
[8] = HPLM + 10% dialyzed FBS, 1.71 µM
[9] = HPLM + 10% dialyzed FBS, 5.12 µM
[10] = HPLM + 10% dialyzed FBS, 15.4 µM
[11] = HPLM + 10% dialyzed FBS, 46.1 µM
[12] = RPMI 5 mM glucose + 10% FBS, 0.000781 µM
[13] = RPMI 5 mM glucose + 10% FBS, 0.00234 µM
[14] = RPMI 5 mM glucose + 10% FBS, 0.00702 µM
[15] = RPMI 5 mM glucose + 10% FBS, 0.0211 µM
[16] = RPMI 5 mM glucose + 10% FBS, 0.0632 µM
[17] = RPMI 5 mM glucose + 10% FBS, 0.19 µM
[18] = RPMI 5 mM glucose + 10% FBS, 0.569 µM
[19] = RPMI 5 mM glucose + 10% FBS, 1.71 µM
[20] = RPMI 5 mM glucose + 10% FBS, 5.12 µM
[21] = RPMI 5 mM glucose + 10% FBS, 15.4 µM
[22] = RPMI 5 mM glucose + 10% FBS, 46.1 µM
[23] = RPMI 5 mM glucose + 10% dialyzed FBS, 0.000781 µM
[24] = RPMI 5 mM glucose + 10% dialyzed FBS, 0.00234 µM
[25] = RPMI 5 mM glucose + 10% dialyzed FBS, 0.00702 µM
[26] = RPMI 5 mM glucose + 10% dialyzed FBS, 0.0211 µM
[27] = RPMI 5 mM glucose + 10% dialyzed FBS, 0.0632 µM
[28] = RPMI 5 mM glucose + 10% dialyzed FBS, 0.19 µM
[29] = RPMI 5 mM glucose + 10% dialyzed FBS, 0.569 µM
[30] = RPMI 5 mM glucose + 10% dialyzed FBS, 1.71 µM
[31] = RPMI 5 mM glucose + 10% dialyzed FBS, 5.12 µM
[32] = RPMI 5 mM glucose + 10% dialyzed FBS, 15.4 µM
[33] = RPMI 5 mM glucose + 10% dialyzed FBS, 46.1 µM

C[C@@]12C[C@@]3(O)O[C@@H](O1)[C@]1(COC(=O)c4ccccc4)[C@H]3C[C@@]12O[C@@H]1O[C@H](CO)[C@@H](O)[C@H](O)[C@H]1O
cell viability [1]: 94.6% | cell viability [2]: 112% | cell viability [3]: 99.3% | cell viability [4]: 126% | cell viability [5]: 124% | cell viability [6]: 130% | cell viability [7]: 137% | cell viability [8]: 113% | cell viability [9]: 100% | cell viability [10]: 71.1% | cell viability [11]: 45.5% | cell viability [12]: 100% | cell viability [13]: 95.2% | cell viability [14]: 109% | cell viability [15]: 103% | cell viability [16]: 114% | cell viability [17]: 105% | cell viability [18]: 105% | cell viability [19]: 103% | cell viability [20]: 98.3% | cell viability [21]: 109% | cell viability [22]: 112% | cell viability [23]: 103% | cell viability [24]: 91.2% | cell viability [25]: 94.9% | cell viability [26]: 103% | cell viability [27]: 101% | cell viability [28]: 114% | cell viability [29]: 93.7% | cell viability [30]: 107% | cell viability [31]: 114% | cell viability [32]: 110% | cell viability [33]: 91%

COc1cc2ncnc(Nc3cc(Br)c(O)c(Br)c3)c2cc1OC
cell viability [1]: 95.8% | cell viability [2]: 91% | cell viability [3]: 114% | cell viability [4]: 112% | cell viability [5]: 107% | cell viability [6]: 102% | cell viability [7]: 120% | cell viability [8]: 119% | cell viability [9]: 97.2% | cell viability [10]: 111% | cell viability [11]: 85.6% | cell viability [12]: 99.5% | cell viability [13]: 115% | cell viability [14]: 99.8% | cell viability [15]: 103% | cell viability [16]: 118% | cell viability [17]: 113% | cell viability [18]: 109% | cell viability [19]: 109% | cell viability [20]: 107% | cell viability [21]: 110% | cell viability [22]: 106% | cell viability [23]: 92.4% | cell viability [24]: 99.7% | cell viability [25]: 99.3% | cell viability [26]: 107% | cell viability [27]: 105% | cell viability [28]: 96.8% | cell viability [29]: 108% | cell viability [30]: 112% | cell viability [31]: 103% | cell viability [32]: 104% | cell viability [33]: 98.2%

CC1(C)O[C@@H]2C[C@H]3[C@@H]4CCC5=CC(=O)C=C[C@]5(C)[C@H]4[C@@H](O)C[C@]3(C)[C@]2(C(=O)CO)O1
cell viability [1]: 95% | cell viability [2]: 92.4% | cell viability [3]: 104% | cell viability [4]: 90.7% | cell viability [5]: 119% | cell viability [6]: 108% | cell viability [7]: 117% | cell viability [8]: 98.5% | cell viability [9]: 95.2% | cell viability [10]: 91.9% | cell viability [11]: 101% | cell viability [12]: 87.2% | cell viability [13]: 92.5% | cell viability [14]: 90.4% | cell viability [15]: 88.7% | cell viability [16]: 97.4% | cell viability [17]: 110% | cell viability [18]: 88.7% | cell viability [19]: 92.5% | cell viability [20]: 98.5% | cell viability [21]: 87.8% | cell viability [22]: 93.6% | cell viability [23]: 96.7% | cell viability [24]: 91.4% | cell viability [25]: 90.9% | cell viability [26]: 90.4% | cell viability [27]: 94.2% | cell viability [28]: 92.9% | cell viability [29]: 106% | cell viability [30]: 109% | cell viability [31]: 104% | cell viability [32]: 85.6% | cell viability [33]: 103%

C[C@@H]1[C@H](O)[C@@H](C)/C=C/C=C/C=C/C=C/C=C/C=C/C=C/[C@H](O[C@@H]2O[C@H](C)[C@@H](O)[C@H](N)[C@@H]2O)C[C@@H]2O[C@](O)(C[C@@H](O)C[C@@H](O)[C@H](O)CC[C@@H](O)C[C@@H](O)CC(=O)O[C@H]1C)C[C@H](O)[C@H]2C(=O)O
cell viability [1]: 113% | cell viability [2]: 121% | cell viability [3]: 126% | cell viability [4]: 117% | cell viability [5]: 114% | cell viability [6]: 116% | cell viability [7]: 124% | cell viability [8]: 123% | cell viability [9]: 152% | cell viability [10]: 138% | cell viability [11]: 133% | cell viability [12]: 108% | cell viability [13]: 124% | cell viability [14]: 112% | cell viability [15]: 114% | cell viability [16]: 111% | cell viability [17]: 115% | cell viability [18]: 133% | cell viability [19]: 119% | cell viability [20]: 125% | cell viability [21]: 118% | cell viability [22]: 135%

Cc1cc2c(F)c(Oc3ncnn4cc(OC[C@@H](C)O)c(C)c34)ccc2[nH]1
cell viability [1]: 107% | cell viability [2]: 87.6% | cell viability [3]: 103% | cell viability [4]: 103% | cell viability [5]: 97.5% | cell viability [6]: 90.4% | cell viability [7]: 99.2% | cell viability [8]: 101% | cell viability [9]: 98.4% | cell viability [10]: 88.9% | cell viability [11]: 69.6% | cell viability [12]: 86.5% | cell viability [13]: 103% | cell viability [14]: 101% | cell viability [15]: 105% | cell viability [16]: 98.2% | cell viability [17]: 98.1% | cell viability [18]: 94.1% | cell viability [19]: 88.6% | cell viability [20]: 88.8% | cell viability [21]: 97% | cell viability [22]: 83.6% | cell viability [23]: 88.5% | cell viability [24]: 104% | cell viability [25]: 102% | cell viability [26]: 92% | cell viability [27]: 90.3% | cell viability [28]: 100% | cell viability [29]: 98.7% | cell viability [30]: 84.9% | cell viability [31]: 109% | cell viability [32]: 79.8% | cell viability [33]: 67.1%

COc1cc(OC)c(/C=C/[S+](=O)([O-])Cc2ccc(OC)c(NCC(=O)[O][Na])c2)c(OC)c1
cell viability [1]: 120% | cell viability [2]: 113% | cell viability [3]: 119% | cell viability [4]: 118% | cell viability [5]: 126% | cell viability [6]: 60.3% | cell viability [7]: 43.7% | cell viability [8]: 47.7% | cell viability [9]: 44% | cell viability [10]: 42.5% | cell viability [11]: 34.4% | cell viability [12]: 110% | cell viability [13]: 104% | cell viability [14]: 102% | cell viability [15]: 121% | cell viability [16]: 109% | cell viability [17]: 99.6% | cell viability [18]: 27.6% | cell viability [19]: 23.9% | cell viability [20]: 27% | cell viability [21]: 26.7% | cell viability [22]: 24.9% | cell viability [23]: 111% | cell viability [24]: 128% | cell viability [25]: 111% | cell viability [26]: 117% | cell viability [27]: 122% | cell viability [28]: 37.5% | cell viability [29]: 31.7% | cell viability [30]: 26.1% | cell viability [31]: 26.2% | cell viability [32]: 23.6% | cell viability [33]: 24.1%

O=C(O)c1ccc2c(c1)nc(Nc1cccc(Cl)c1)c1ccncc12
cell viability [1]: 114% | cell viability [2]: 109% | cell viability [3]: 131% | cell viability [4]: 115% | cell viability [5]: 114% | cell viability [6]: 119% | cell viability [7]: 125% | cell viability [8]: 114% | cell viability [9]: 73.8% | cell viability [10]: 49.2% | cell viability [11]: 78.1% | cell viability [12]: 93% | cell viability [13]: 93.5% | cell viability [14]: 103% | cell viability [15]: 103% | cell viability [16]: 94.6% | cell viability [17]: 103% | cell viability [18]: 92.7% | cell viability [19]: 90.8% | cell viability [20]: 83.7% | cell viability [21]: 65.6% | cell viability [22]: 79.2% | cell viability [23]: 100% | cell viability [24]: 105% | cell viability [25]: 101% | cell viability [26]: 101% | cell viability [27]: 107% | cell viability [28]: 99.1% | cell viability [29]: 91.9% | cell viability [30]: 101% | cell viability [31]: 81.5% | cell viability [32]: 47.2% | cell viability [33]: 77.5%
